# Peptide text beside a SMILES is read from it. * marks the point of attachment. Cbz = O=C(OCc1ccccc1)*; CH2F = FC*
# Experiments:
# 08031-9 cells = assay: In vitro apoptotic body staining; type: cell-based, mouse; conditions: 08031-9 transfected with pAAV-CBA-hASC
# HEI-193 cells = assay: In vitro apoptosis staining (TACS 2 TdT-DAB); type: cell-based, human; conditions: HEI-193 transfected with pAAV-CBA-hASC
# Procedure: To determine whether the ASC/TMS1-mediated growth inhibition was the result of caspases induced apoptosis, in vitro apoptosis staining was performed using TACS 2 TdT-DAB In situ Apoptosis Detection kit (Trevigen).
# Apoptosis assay. In-vitro DNA fragmentation of apoptotic cells was assessed TACS® 2 TdT-DAB in Situ Apoptosis Detection Kit. In brief, HEI-193 cells on the coated cover glass and transfected with dsAAV-CBA-ASC or dsAAV-CBA-GFP. Fragmented DNA were visualized with diaminobenzidine (DAB) and viewed by light microscope. In-vivo apoptosis study was assessed using the same kit on fresh frozen nerves that were sliced to 15 um thin sections using cryostat and fixed in 3.7% formaldehyde.
# [1] = test system: HEI-193 human schwannoma cell line; conditions: HEI193 cells transfected with pAAV-CBA-hASC
# Procedure: For all cell types, growth media were supplemented with 10% fetal bovine serum (FBS; Sigma-Aldrich) and 1% penicillin-streptomycin (Cellgro, Herndon, VA) and cells were maintained at 37° C. in a humidified atmosphere of 5% CO2 and 95% air. […] For transfections in 24-well format, 100,000 cells were seeded 24 hours prior to transfection. 1 μl of liofectamine 2000 (Invitrogen, USA) was used for every 500 ng of transfected plasmid in FBS free medium (Optimem, Invitrogen, USA). The DNA/Lipofectamine mix was incubated at room temperature for 30 minutes before spread over the cells and left for 5-6 hours then replaced by fresh medium. The amount of plasmid/lipofectamine was scaled up according to the plate format used.
# Cell viability and toxicity assay. The Cell Titer-Glo™ luminescent cell viability assay (Promega, Madison, WI) was used to determine the number of viable cells in culture on the basis of quantitation of ATP levels, an indicator of metabolically active cells. […] The luminescence was measured with a luminometer (Dynex Technologies, Chantilly, VA). Cell death was measured by the LDH assay using CytoTox 96 Non-Radioactive Cytotoxicity Assay kit (Promega) according to the manufacturer's instructions.
# ASC in HEI-193 cell line = assay: Demethylation of ASC CpG island, ASC expression by RT-PCR; type: cell-based, human
# Procedure: The cultured cells were treated with (5azadeoxycytindine 0.5, 1 or 2.5 uM) or not treated (0) for 3 days.
# Real-time quantitative PCR analyses. RNA isolation from tissue samples was conducted with TRIzol™ reagent according to the manufacturer's instructions (Qiagen, USA) and transcribed into cDNA using superscript VILO™ cDNA synthesis kit (Invitrogen, USA). Taqman™ real-time PCR was carried out using RealPlex MasterCycler™ (eppendorf, USA). […] Taqman probes were purchased from life technologies, USA.
smiles,measurement,setting,value
COC(=O)CC[C@H](NC(=O)[C@H](CC(=O)OC)NC(=O)OCc1ccccc1)C(=O)N[C@H](C(=O)N[C@@H](CC(=O)OC)C(=O)CF)C(C)C [ZDEVD-FMK],apoptosis in presence of caspase inhibitor,08031-9 cells,abolished
same,apoptosis in presence of caspase inhibitor,HEI-193 cells,no apoptosis
same,apoptosis in presence of caspase inhibitor,HEI-193 cells; listed as ZDEVDFMK,inhibit
same,apoptosis in presence of caspase inhibitor,HEI-193 cells; listed as caspase-3 inhibitor,abolished
same,LDH release cytotoxicity in presence of caspase inhibitor,[1],inhibited
Nc1ncn([C@H]2C[C@H](O)[C@@H](CO)O2)c(=O)n1 [5azadeoxycytidine],ASC promoter methylation,ASC in HEI-193 cell line,reversible
same,"ASC expression (RT-PCR, normalized to β-actin)","ASC in HEI-193 cell line; 0.5, 1 or 2.5 uM for 3 days, ASC-negative HEI-193",restores expression
COC(=O)C[C@H](NC(=O)[C@H](C)NC(=O)[C@@H](NC(=O)OCc1ccccc1)C(C)C)C(=O)CF [ZVAD-FMK] (Cbz-Val-Ala-Asp(OMe)-CH2F),apoptosis in presence of caspase inhibitor,08031-9 cells,abolished
same,apoptosis in presence of caspase inhibitor,HEI-193 cells,no apoptosis
same,apoptosis in presence of caspase inhibitor,HEI-193 cells; listed as ZVADFMK,inhibit
same,apoptosis in presence of caspase inhibitor,HEI-193 cells; listed as pan-caspase inhibitor,abolished
same,LDH release cytotoxicity in presence of caspase inhibitor,[1],inhibited

# Reference: patent US12178845B2, “Methods and compositions relating to the treatment of tumors” (THE GENERAL HOSPITAL CORPORATION, priority 2016, dated 2024)
